# Measurements taken from patent publication US6797461B2, “Tryptase substrates and assay for tryptase activity using same” (Promega Corporation, priority 2000, dated 2004).
# Residues, ends and D or L forms follow the SMILES beside them. *: point of attachment. ACC = NC(=O)Cc1cc(=O)oc2cc(N*)ccc12
# Columns and labels:
# Type in all cases: biochemical
# [1] = tested on: T1, recombinant human β-II tryptase (lung tryptase) (Homo sapiens, N132K); experiment: Single substrate kinetic analysis of fluorogenic ACC substrates, lung (β-II) tryptase
# T1 construct: Secreted mature βI- and βII-tryptases were purified to homogeneity; made in house; host or cells: Pichia pastoris GS115
# T1 sequence (Q15661 31-275 N132K): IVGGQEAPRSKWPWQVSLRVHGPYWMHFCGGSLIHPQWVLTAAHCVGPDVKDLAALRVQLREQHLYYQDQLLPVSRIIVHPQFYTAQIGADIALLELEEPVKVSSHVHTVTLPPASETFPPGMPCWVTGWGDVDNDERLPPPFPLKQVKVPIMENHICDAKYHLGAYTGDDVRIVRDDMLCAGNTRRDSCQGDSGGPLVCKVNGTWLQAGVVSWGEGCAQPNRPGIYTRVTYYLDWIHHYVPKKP
# Protocol: (§1) βI- and βII-tryptase concentrations ranged from 5 nM to 15 nM. The final concentration of substrate ranged from 5 μM to 200 μM; the concentration of DMSO in the assay was less than 5%. Hydrolysis of ACC substrates was monitored fluorometrically with an excitation wavelength of 380 nm and an emission wavelength of 460 nm on a Fluoromax-2 spectrofluorimeter.
# (§2) Tryptase activity was monitored at 30° C. in assay buffer containing 100 mM HEPES, pH 7.5, 10% w/v glycerol, and 0.1 mg/ml heparin. Substrate stock solutions were prepared in DMSO. The final concentration of substrate ranged from 5 μM to […], the concentration of DMSO in the assay was less than 5%. Tryptase concentration was 5 nM.
# (§3) Hydrolysis of ACC substrates was monitored fluorometrically with an excitation wavelength of 380 nm and emission wavelength of 450 nm on a Fluoromax-2 spectrofluorimeter. The amino-terminus of each polypeptide was acetylated.
# (§4) To quantitate tryptase βI and βII dependence on extended substrate specificity, several peptide substrates were synthesized and the kinetic constants determined for each of the enzymes. […] All of these effects are manifested in the Km term, not the kcat term.
# (§5) Kinetic parameters were independently obtained for both recombinant β-I and β-II tryptases against rational substitutions in the substrates at P2-P4 positions.
# [2] = molecular target: T2, recombinant human β-I tryptase (skin tryptase) (Homo sapiens, UniProt Q15661); experiment: Single substrate kinetic analysis of fluorogenic ACC substrates, skin (β-I) tryptase
# T2 construct: Secreted mature βI- and βII-tryptases were purified to homogeneity; made in house; host or cells: Pichia pastoris
# T2 sequence (Q15661 31-275): as the sequence (Q15661 31-275 N132K) above, with K102N counted along it
# Protocol: as §1, §2, §3, §4, §5
# [3] = tested on: non-tryptase proteolysis in human serum; experiment: Non-tryptase proteolytic activities in serum with protease inhibitors (FIG. 9); conditions: 25 μg/ml, 30 minutes at room temperature, Ac-PRNK-ACC 100 μM
# Protocol: Human recombinant β-I tryptase (Promega) was two-fold serially diluted in human serum from 10,000 pg to 190 pg/ml. Aprotinin, Soybean trypsin inhibitor (SBTI) or anti-trypsin was added to each dilution at 25 μg/ml and allowed to incubate at room temperature for 30 minutes. An uninhibited serum standard curve was similarly created. 100 μl of each treated and untreated serum dilution was pipetted in triplicate to a microtiter well plate. Ac-PRNK-ACC (SEQ. ID. NO: 12) was added to 100 μM and the plate incubated at room temperature for 10 minutes prior to reading at an excitation wavelength of 355 nm and emission wavelength of 460 nm.
# [4] = Lung (β-II) Tryptase, 30° C., 100 mM HEPES pH 7.5, 10% glycerol, 0.1 mg/ml heparin
# [5] = Skin (β-I) Tryptase, 30° C., 100 mM HEPES pH 7.5, 10% glycerol, 0.1 mg/ml heparin
Compound,"Km [1, 4] [µM]","Km [2, 5] [µM]","activity relative to Ac-PRNK-ACC substrate (kcat/Km) ([1]; tryptase βII, range stated over tryptase βI and βII)","activity relative to Ac-PRNK-ACC substrate (kcat/Km) ([2]; tryptase βI, range stated over tryptase βI and βII)","kcat [1, 4] [s⁻¹]","kcat [2, 5] [s⁻¹]",effect on intrinsic fluorescence associated with non-tryptase proteolysis in serum [3]
"CC(=O)N1CCC[C@H]1C(=O)N[C@@H](CCCNC(=N)N)C(=O)N[C@@H](CC(N)=O)C(=O)N[C@@H](CCCCN)C(=O)Nc1ccc2c(CC(N)=O)cc(=O)oc2c1 [Ac-PRNK-ACC, Acetyl-Prolyl-Arginyl-Asparaginyl-Lysyl-aminoacetamide coumarin] (Ac-PRNK-{ACC})",8.9 ± 0.9,14.5 ± 1.9,,,,,
CC(=O)N1CCC[C@H]1C(=O)N[C@@H](CCCNC(=N)N)C(=O)N[C@@H](CC(N)=O)C(=O)N[C@@H](CCCNC(=N)N)C(=O)Nc1ccc2c(CC(N)=O)cc(=O)oc2c1 [Ac-PRNR-ACC] (Ac-PRNR-{ACC}),16.5 ± 2.7,18.6 ± 2.6,70-90%,70-90%,,,
CC(=O)N1CCC[C@H]1C(=O)N[C@@H](CCCNC(=N)N)C(=O)N[C@H](C(=O)N[C@@H](CCCCN)C(=O)Nc1ccc2c(CC(N)=O)cc(=O)oc2c1)[C@@H](C)O [Ac-PRTK-ACC] (Ac-PRTK-{ACC}),14.7 ± 1.4,23.4 ± 2.3,,,,,
Ac-PANK-ACC: acetylated tetrapeptide P-A-N-K with C-terminal 7-amino-4-carbamoylmethyl-coumarin leaving group,110 ± 9.8,133 ± 15.6,,,20.27 ± 0.48,19.06 ± 0.64,
aprotinin,,,,,,,significantly and specifically diminished
